Laboratory results reported in patent US20230416262A1, “TRPML MODULATORS” (Casma Therapeutics, Inc., priority 2020, published 2023).

Legend:
TFEB = TFEB nuclear translocation assay; type: cell-based; settings: Homo sapiens; HeLa wt or HeLa TRPML1 KO cells, treated for 2 hrs; ratio of nuclear to ring-region TFEB intensity
How it was run: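 HeLa wild-type or TRPML1 KO cells treated 2 h with compound at 37 °C, PFA-fixed, immunostained for TFEB (Alexa 488) with Hoechst nuclei. Imaged at ×20, four fields/well. Value is ratio of nuclear to perinuclear-ring TFEB intensity, with nuclei counts.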

THP-1 cells = test: Lamp1 lysosomal exocytosis assay; type: cell-based; settings: Homo sapiens, 55 min, 55 min incubation, top dose 20 μM
How it was run: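 THP-1 cells (1e5/well) exposed to a 7-point 3-fold compound series, top final 20 μM, for 55 min at 37°C. Surface Lamp1 then stained with Lamp1-PE on ice in buffer containing 80 μM Dynasore, and read by flow cytometry as PE geometric mean on live, sytox-negative singlets.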

| SMILES | EC50 (TFEB) | EC50 (THP-1 cells) |
| --- | --- | --- |
| O=C(Nc1ccc2c(c1)CCO2)N1CCC2(CC1)CN(S(=O)(=O)c1ccc(C(F)F)cc1)c1ccccc12 [Compound I-219, 1-((4-(difluoromethyl)phenyl)sulfonyl)-N-(2,3-dihydrobenzofuran-5-yl)spiro[indoline-3,4′-piperidine]-1′-carboxamide] | ≥ 10 µM | ≥ 5.01 µM |
| CN1CCC2(CC1)CN(S(=O)(=O)c1ccc(C(F)F)cc1)c1ccccc12 [Compound I-83] | ≥ 10 µM | ≥ 5.01 µM |
| CN(C)S(=O)(=O)c1ccc(S(=O)(=O)N2CC3(CCN(CC(F)(F)F)CC3)c3ccccc32)cc1 [Compound I-87, N,N-dimethyl-4-{[1′-(2,2,2-trifluoroethyl)-1,2-dihydrospiro[indole-3,4′-piperidin]-1-yl]sulfonyl}benzene-1-sulfonamide] | ≤ 2 µM | 0.51 to 1 µM |
| O=C(OCc1ccccc1)N1CCC2(CC1)CN(C(=O)c1ccccc1)c1ccccc12 [Compound I-184, benzyl 1-benzoyl-1,2-dihydrospiro[indole-3,4′-piperidine]-1′-carboxylate] | ≥ 10 µM | ≥ 5.01 µM |
| O=C(OCc1ccccc1)N1CCC2(CC1)CN(C(=O)Oc1ccc(C(F)F)cc1)c1ccccc12 [Compound I-249, 1′-benzyl 1-(4-(difluoromethyl)phenyl) spiro[indoline-3,4′-piperidine]-1,1′-dicarboxylate] | ≥ 10 µM | ≥ 5.01 µM |
| COc1ccc(NC(=O)N2CCC3(CC2)CN(S(=O)(=O)c2ccc(C(F)F)cc2)c2ccccc23)cc1OC [Compound I-226, 1-((4-(difluoromethyl)phenyl)sulfonyl)-N-(3,4-dimethoxyphenyl)spiro[indoline-3,4′-piperidine]-1′-carboxamide] | ≥ 10 µM | ≥ 5.01 µM |

Next, values leading:

| EC50 (TFEB) | EC50 (THP-1 cells) | SMILES |
| --- | --- | --- |
| ≤ 2 µM | ≤ 0.5 µM | O=C(CCc1ccccc1)N1CCC2(CC1)CN(S(=O)(=O)c1ccc(C(F)F)cc1)c1ccccc12 [Compound I-174, 1-(1-((4-(difluoromethyl)phenyl)sulfonyl)spiro[indoline-3,4′-piperidin]-1′-y1)-3-phenylpropan-1-one] |
| ≤ 2 µM | 0.51 to 1 µM | O=C(OCc1ccccc1)N1CCC2(CC1)CN(S(=O)(=O)c1ccc(C(F)(F)F)nc1)c1ccccc12 [Compound I-187, benzyl 1-((6-(trifluoromethyl)pyridin-3-yl)sulfonyl)spiro[indoline-3,4′-piperidine]-1′-carboxylate] |
| ≥ 10 µM | ≥ 5.01 µM | CN(C)S(=O)(=O)c1ccc(S(=O)(=O)N2CC3(CCN(C(=O)OCC4CC4)CC3)n3nccc32)cc1 [Compound I-145, cyclopropylmethyl 1′-[4-(dimethylsulfamoyl)benzenesulfonyl]-1′,2′-dihydrospiro[piperidine-4,3′-pyrazolo[1,5-a]imidazole]-1-carboxylate] |
| ≤ 2 µM | 1.01 to 5 µM | CN(C)S(=O)(=O)c1ccc(S(=O)(=O)N2CC3(CCN(C(=O)C(C)(C)C)CC3)c3ccccc32)cc1 [Compound I-118, 4-{[1′-(2,2-dimethylpropanoyl)-1,2-dihydrospiro[indole-3,4′-piperidin]-1-yl]sulfonyl}-N,N-dimethylbenzene-1-sulfonamide] |
| ≤ 2 µM | ≤ 0.5 µM | O=C(OCc1ccccc1)N1CCC2(CC1)CN(S(=O)(=O)c1ccc(C(F)F)cc1)c1ccccc12 [Compound I-81] |
